The text below walks through data of patent US8987285B2, “Pharmaceutical compositions, dosage forms and new forms of the compound of formula (I), and methods of use thereof” (Portola Pharmaceuticals, Inc., priority 2010, dated 2015).

The nature of series [1]: Wettability: contact angle measurement with water on pressed powder. The format is physicochemical. The following applies: for Contact angle: water, listed as A, in ° (unit assumed).
Description: Contact angel instrument: EasyDrop DSA15E (Krüss, Hamburg, Germany)
Syringe: NE44, diameter of needle 0.5 mm (Krüss, Hamburg, Germany)
The powder was pressed (approx 50 mg powder, 3 tons, 2 min) in tablets and analyzed by contact angle measurement. The angel between the solid and the liquid is measured after 0 and up to 60 seconds using water.
All determinations used the above method and the limit for the standards measurements are well within the given limits.
A short description of series [2]: Solubility-excipient screening (Sirius CheqSol, 0.15 M aqueous KCl). The format is physicochemical. The following applies: drug:excipient 1:1 by weight, Form A titrated from pH 12 with 0.5 M HCl.
Description: In all experiments, the compound of formula (II) and excipient were present at a 1:1 weight ratio. For each excipient, Form A of the potassium salt was titrated at an initial concentration of ˜1 mg/ml from pH 12 to low pH with 0.5 M HCl. A UV-turbidity probe was used to detect the presence of sample precipitate and all experiments were carried out according to standard CheqSol procedure.
Series [3] in a line: Super-saturation measurement (CheqSol): intrinsic and kinetic solubility. The format is physicochemical. The text has this: Anal. Chem. 2005, 77(4), 983-990; 2—Box, K J. Völgyi, G. Baka, E. Stuart, M. Takács-Novák, K. Corner, J E A. Equilibrium vs. kinetic measurements of aqueous solubility, and the ability of compounds to supersaturate in solution—a validation study. J. Pharm. Sci. 2006, 95, 1298-1307; 3—Sköld, C. Winiwarter, S. Johan Wernevik, J. Bergström, F. Engström, L. Allen, R. Box, K. Corner, J. Mole, J. Hallberg, A. Lennernäs, H. Lundstedt, T. Ungell, A-L. Karlén, A. Presentation of a Structurally Diverse and Commercially Available Drug Data Set for Correlation and Benchmarking Studies. J. Med. Chem. 2006, 49(23), 6660-6671;
. Med. Chem.; 2007, 50 (5), 979-983; 5—Llinás, A. Box, K J. Burley, J C. Glen, R C. Goodman, J M. J. A new method for the reproducible generation of polymorphs: two forms of Sulindac with very different solubilities. […] 6—Box K et al, Using Measured pKa, Log P and Solubility to Investigate Supersaturation and Predict BCS Class, Current Drug Metabolism, 2008, 9, 869-878]
1—kinetic solubility is the concentration of a compound in solution at the time when an induced precipitate first appears
2—equilibrium solubility (also called thermodynamic solubility) is the concentration of compound in a saturated solution when excess solid is present, and solution and solid are at equilibrium
3—intrinsic solubility [Hörter, D.; Dressman, J. B. Adv. Drug Deliv. Rev., 1997, 25, 3-14] is the equilibrium solubility of the free acid or base form of an ionisable compound at a pH where it is fully un-ionized
The super-saturation ratio is calculated as the ratio of kinetic solubility divided by the Intrinsic Solubility.

A short description of series [4]: Saturation solubility, shake-flask with UV quantification. The format is physicochemical. The following applies: for final pH measured of the supernatant / Saturation solubility: listed as The compound of formula (I), form A.
Description: The FaSSIF and FeSSIF solutions were prepared using Phares SIF powder according to the formulation instructions and the SGF solution was prepared using the guidelines provided. […] The pH and temperature of the supernatant were measured on a SiriusT3 instrument.
The conditions of series [5]: cited from earlier work.

`CNc1cc2[nH]c(=O)n(-c3ccc(NC(=O)[N-]S(=O)(=O)c4ccc(Cl)s4)cc3)c(=O)c2cc1F.[K+]` [Form A]: the “surface hydrophobilicity from contact angle” value in series [1] (critical angle around 50° (>50° hydrophob <50° hydrophil), listed as polymorph A) is recorded as “hydrophob”. Moreover, the figures for the Contact angle in series [1] (0 sec), in series [1] (30 sec) and in series [1] (60 sec) were 78.8, 53.3 and 51.0, respectively. The “pH first precipitation occurs” value in series [2] is 5.3. In series [2] (~1 mg/ml), this molecule gave a Kinetic solubility of 12.57 µM. Also, in series [3] (kinetic from dmso stock, CheqSol), the kinetic solubility is 6.57 µg/mL. For the same molecule, the ratio super saturation in series [3] (kinetic solubility divided by intrinsic solubility, listed as K-salt-Form A) was 412. In series [3] (thermodynamic from solid, CheqSol), this molecule gave a solubility of 0.0159 µg/mL. Moreover, the “final pH measured of the supernatant” value in series [4] (FaSSIF pH 6.5-1w) was determined as 6.93; in series [4] (FeSSIF pH 5.0-1w), 5.15; in series [4] (Na Phosphate pH 6.8), 6.94; in series [4] (Na-Acetate pH 4.5), 4.81; in series [4] (SGF pH 2.1) it was 4.74. Further, the Saturation solubility in series [4] (FeSSIF pH 5.0-1w, mean N = 2) worked out at 2.76 µg/mL; in series [4] (Na Phosphate pH 6.8, mean N = 2) it was 20.25 µg/mL; in series [4] (Na-Acetate pH 4.5, mean N = 2), 0.48 µg/mL; in series [4] (SGF pH 2.1, mean N = 2), 2.24 µg/mL. The molecule also came in with a solubility at 72 h in series [4] (pH 6.5, fassif, thermodynamic from solid, FaSSIF pH 6.5-1w, mean N = 2) of 107 µg/mL.

For the molecule `NCCCC[C@H](N)C(=O)O` [Lysine], the “Aqueous Solubility” value in series [5] is on record as “free soluble”.

For orientation: kinetic solubility means the concentration staying in solution when a stock, usually in DMSO, is diluted into the medium. Broadly, the solubility is the concentration that dissolves in the medium under given conditions.
